Measurements from patent US10844057B2, “Process for preparing JAK inhibitors and intermediates thereof” (priority 2018, dated 2020).
Read-outs that look alike come from different tables or passages of the source.

Columns and labels:
[1] = system: IL-2 stimulated STAT5 phosphorylation in Tall-1 human T cell line; assay: Inhibition of IL-2 stimulated pSTAT5 in Tall-1 T cells; assay type: cell-based
Method: Assay 2: Inhibition of IL-2 Stimulated pSTAT5 in Tall-1 T Cells
The potency of test compounds for inhibition of interleukin-2 (IL-2) stimulated STAT5 phosphorylation was measured in the Tall-1 human T cell line (DSMZ) using AlphaLisa.
Phosphorylated STAT5 was measured via the AlphaLISA SureFire Ultra pSTAT5 (Tyr694/699) kit (PerkinElmer).
Compounds were serially diluted in DMSO and dispensed acoustically to empty wells. Assay media (phenol red-free DMEM (Life Technologies) supplemented with 10% FBS (ATCC)) was dispensed (4 μL/well) and plates shaken at 900 rpm for 10 mins. Cells were seeded at 45,000 cells/well in assay media (4 μL/well), and incubated at 37° C., 5% CO2 for 1 hour, followed by the addition of IL-2 (R&D Systems; final concentration 300 ng/mL) in pre-warmed assay media (4 μL) for 30 minutes. […] The lysate was shaken at 900 rpm for 10 minutes at room temperature (RT). Phosphorylated STAT5 was measured via the pSTAT5 AlphaLisa kit (PerkinElmer). Freshly prepared acceptor bead mixture was dispensed onto lysate (5 μL) under green filtered <100 lux light. Plates were shaken at 900 rpm for 2 mins, briefly spun down, and incubated for 2 hrs at RT in the dark. Donor beads were dispensed (5 μL) under green filtered <100 lux light. Plates were shaken at 900 rpm for 2 minutes, briefly spun down, and incubated overnight at RT in the dark. Luminescence was measured with excitation at 689 nm and emission at 570 nm using an EnVision plate reader (PerkinElmer) under green filtered <100 lux light.
To determine the inhibitory potency of test compounds in response to IL-2, the average emission intensity of beads bound to pSTAT5 was measured in a human T cell line. IC50 values were determined from analysis of the inhibition curves of signal intensity versus compound concentration. Data are expressed as pIC50 (negative decadic logarithm IC50) values (mean±standard deviation).

[2] = system: TSLP-evoked TARC release in human peripheral blood mononuclear cells; assay: Inhibition of TSLP-evoked TARC release in human peripheral blood mononuclear cells; assay type: cell-based; conditions: Homo sapiens, PBMC, 48 h, read-out: pIC50 ± st. dev., inhibition of TSLP-evoked TARC release (converted)
Excerpt: Assay 4: Inhibition of TSLP-Evoked TARC Release in Human Peripheral Blood Mononuclear Cells
Thymic stromal lymphopoietin (TSLP) and thymus and activation-regulated chemokine (TARC) are overexpressed in asthmatic airways, and correlate with disease severity. In the lungs, TSLP may be released by bronchial epithelial cells in response to allergens and viral infections. TSLP signals through an IL-7Rα/TSLPR heterodimer found in a broad range of tissues and cell types, including epithelial cells, endothelial cells, neutrophils, macrophages, and mast cells. The binding of TSLP to its receptor induces a conformational change that activates JAK1 and JAK2 to phosphorylate various transcription factors, including STAT3 and STAT5. In immune cells, this triggers a cascade of intracellular events that result in cell proliferation, anti-apoptosis, dendritic cell migration, and production of Th2 cytokines and chemokines. In peripheral blood mononuclear cells (PBMC), TSLP has a proinflammatory effect by activating myeloid dendritic cells to attract and stimulate T cells, a process mediated by the chemoattractant TARC.
The potencies of the test compounds were measured for inhibition of TARC release.
PBMC aliquots (previously isolated from whole blood and frozen in aliquots at −80° C.) from 3 to 5 donors were thawed at 37° C. and added dropwise to 40 mL pre-warmed, sterile-filtered, complete RPMI media in 50 mL Falcon tubes. Cells were pelleted and resuspended in complete media at 2.24×10^6 cells/mL. […] Cells were allowed to rest for 1 hour at 37° C. with 5% CO2.
Compounds were received as 10 mM stock solutions in DMSO. 3.7-fold serial dilutions were performed to generate 9 concentrations of test compound in DMSO at 300× the final assay test concentration. […] 95 μL of 0.2% DMSO in complete media was added to the untreated control wells. Cells were pre-treated with compound for 1 hour at 37° C. with 5% CO2 prior to stimulation.
Immediately prior to use, an aliquot was thawed and prepared at 20× the final assay concentration in complete media. 10 μL of 20×TSLP was added to each well of PBMC, for a final assay concentration of 10 ng/mL. 10 μL of complete media was added to the unstimulated control wells. Cells were stimulated in the presence of compound for 48 hours at 37° C. with 5% CO2.
Following stimulation, the cell culture supernatants were harvested and TARC levels were detected by enzyme-linked immunosorbent assay (ELISA), using Human CCL17/TARC Quantikine ELISA Kit (R&D Systems # DDN00) according to the manufacturer's instructions.
For dose response analysis, the log [test compound (M)] was plotted versus the percent response values for each donor, and IC50 values were determined using a nonlinear regression analysis with GraphPad Prism Software using the 4-parameter sigmoidal dose-response algorithm with variable slope. Data are expressed as mean pIC50 (negative decadic logarithm IC50) values calculated from pIC50 values of individual donors and rounded to one decimal place.

[3] = target: Tyk2 (Homo sapiens (Human), UniProt P29597); assay: Biochemical JAK kinase assay (LanthaScreen), Tyk2; conditions: converted from pIC50 using Cheng-Prusoff; ATP 10 μM
Method: (§1) Assay 1: Biochemical JAK Kinase Assays
(§2) A panel of four LanthaScreen JAK biochemical assays (JAK1, 2, 3 and Tyk2) were carried in a common kinase reaction buffer (50 mM HEPES, pH 7.5, 0.01% Brij-35, 10 mM MgCl2, and 1 mM EGTA). Recombinant GST-tagged JAK enzymes and a GFP-tagged STAT1 peptide substrate were obtained from Life Technologies.
(§3) Serially diluted compounds were pre-incubated with each of the four JAK enzymes and the substrate in white 384-well microplates (Corning) at ambient temperature for 1 h. ATP was subsequently added to initiate the kinase reactions in 10 μL total volume, with 1% DMSO. […] Kinase reactions were allowed to proceed for 1 hour at ambient temperature before a 10 μL preparation of EDTA (10 mM final concentration) and Tb-anti-pSTAT1 (pTyr701) antibody (Life Technologies, 2 nM final concentration) in TR-FRET dilution buffer (Life Technologies) was added. The plates were allowed to incubate at ambient temperature for 1 h before being read on the EnVision reader (Perkin Elmer). Emission ratio signals (520 nm/495 nm) were recorded and utilized to calculate the percent inhibition values based on DMSO and background controls.
(§4) For dose-response analysis, percent inhibition data were plotted vs. compound concentrations, and IC50 values were determined from a 4-parameter robust fit model with the Prism software (GraphPad Software). Results were expressed as pIC50 (negative logarithm of IC50) and subsequently converted to pKi (negative logarithm of dissociation constant, Ki) using the Cheng-Prusoff equation.

[4] = target: JAK3 (Homo sapiens (Human), UniProt P52333); assay: Biochemical JAK kinase assay (LanthaScreen), JAK3; conditions: converted from pIC50 using Cheng-Prusoff; ATP 1.6 μM
Method: as §1, §2, §3, §4

[5] = target: JAK2 (Homo sapiens (Human), UniProt O60674); assay: Biochemical JAK kinase assay (LanthaScreen), JAK2; conditions: converted from pIC50 using Cheng-Prusoff; ATP 3 μM
Method: as §1, §2, §3, §4

[6] = Lung and plasma exposure in mice after oral aspiration; assay type: in vivo; conditions: mouse, other: oral aspiration, 50 µg/animal; for Kp at 5 h: Balb/c, lung and plasma, lung ng/g to plasma ng/mL, mice, read-out: Lung to Plasma ratio at 5 hr; for concentration at 5 h: Balb/c mice, 1 mg/mL, 50 μL via oral aspiration
Method: Adult Balb/c mice from Harlan were used in the assay. […] Animals were placed in lateral recumbency post dose and monitored for full recovery from anesthesia before being returned to their home cage. Four hours later, animals were once again briefly anesthetized and challenged with either vehicle or IL-13 (0.03 μg total dose delivered, 50 μL total volume) via oral aspiration before being monitored for recovery from anesthesia and returned to their home cage. One hour after vehicle or IL-13 administration, whole blood and lungs were collected for both pSTAT6 detection in lung homogenates using a Perkin Elmer AlphaLISA® SureFire® Ultra™ HVp-STAT6 (Tyr641) assay kit and for total drug concentration analysis in both lung and plasma. Blood samples were centrifuged (Eppendorf centrifuge, 5804R) for 4 minutes at approximately 12,000 rpm at 4° C. to collect plasma. […] Plasma and lung levels of test compound were determined by LC-MS analysis against analytical standards constructed into a standard curve in the test matrix. A lung to plasma ratio was determined as the ratio of the lung concentration in ng/g to the plasma concentration in ng/mL at 5 hours.

[7] = target: JAK1 (Homo sapiens (Human), UniProt P23458); assay: Biochemical JAK kinase assay (LanthaScreen), JAK1; conditions: converted from pIC50 using Cheng-Prusoff; ATP 25 μM
Method: as §1, §2, §3, §4

[8] = TALL-1, read-out: Tall-1 pIC50 (converted)
[9] = lung, read-out: Lung Concentration (ng/g) at 5 hr
[10] = plasma, read-out: Plasma Concentration (ng/mL) at 5 hr
[11] = IL-2 300 ng/mL, pSTAT5 AlphaLisa, Tall-1 cells, read-out: Tall-1 pIC50 (converted)

Sequence of JAK1 (P23458 whole entry): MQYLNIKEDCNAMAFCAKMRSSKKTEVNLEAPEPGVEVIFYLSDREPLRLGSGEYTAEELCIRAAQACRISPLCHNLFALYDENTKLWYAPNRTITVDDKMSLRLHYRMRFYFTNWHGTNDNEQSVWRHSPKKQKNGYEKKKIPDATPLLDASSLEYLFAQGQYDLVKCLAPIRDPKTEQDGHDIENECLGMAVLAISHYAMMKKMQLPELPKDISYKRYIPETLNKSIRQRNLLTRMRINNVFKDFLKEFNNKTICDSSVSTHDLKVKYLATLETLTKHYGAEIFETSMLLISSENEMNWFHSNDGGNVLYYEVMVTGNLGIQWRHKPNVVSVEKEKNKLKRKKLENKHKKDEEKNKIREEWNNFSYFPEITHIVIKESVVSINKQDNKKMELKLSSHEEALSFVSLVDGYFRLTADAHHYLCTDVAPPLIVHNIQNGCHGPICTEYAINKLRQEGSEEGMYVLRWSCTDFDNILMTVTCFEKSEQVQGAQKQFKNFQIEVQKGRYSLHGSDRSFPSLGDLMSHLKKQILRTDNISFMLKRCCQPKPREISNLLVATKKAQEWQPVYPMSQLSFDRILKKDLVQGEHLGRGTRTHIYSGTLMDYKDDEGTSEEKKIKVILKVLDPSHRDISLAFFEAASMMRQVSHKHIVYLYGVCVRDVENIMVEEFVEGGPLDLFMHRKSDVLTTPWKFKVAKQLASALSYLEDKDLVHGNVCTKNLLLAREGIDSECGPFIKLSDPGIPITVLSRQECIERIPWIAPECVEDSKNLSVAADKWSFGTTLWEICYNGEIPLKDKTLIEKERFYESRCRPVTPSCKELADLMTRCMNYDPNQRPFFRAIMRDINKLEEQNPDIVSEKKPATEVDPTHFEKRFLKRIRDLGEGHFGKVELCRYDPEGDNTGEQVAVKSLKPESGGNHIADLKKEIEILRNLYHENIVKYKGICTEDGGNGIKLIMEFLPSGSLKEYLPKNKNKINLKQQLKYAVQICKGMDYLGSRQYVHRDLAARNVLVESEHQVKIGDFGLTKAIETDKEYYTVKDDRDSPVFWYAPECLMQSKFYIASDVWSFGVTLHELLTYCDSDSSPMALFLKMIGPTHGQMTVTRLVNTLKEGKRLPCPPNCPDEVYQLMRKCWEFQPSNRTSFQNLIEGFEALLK
Sequence of JAK2 (O60674 whole entry): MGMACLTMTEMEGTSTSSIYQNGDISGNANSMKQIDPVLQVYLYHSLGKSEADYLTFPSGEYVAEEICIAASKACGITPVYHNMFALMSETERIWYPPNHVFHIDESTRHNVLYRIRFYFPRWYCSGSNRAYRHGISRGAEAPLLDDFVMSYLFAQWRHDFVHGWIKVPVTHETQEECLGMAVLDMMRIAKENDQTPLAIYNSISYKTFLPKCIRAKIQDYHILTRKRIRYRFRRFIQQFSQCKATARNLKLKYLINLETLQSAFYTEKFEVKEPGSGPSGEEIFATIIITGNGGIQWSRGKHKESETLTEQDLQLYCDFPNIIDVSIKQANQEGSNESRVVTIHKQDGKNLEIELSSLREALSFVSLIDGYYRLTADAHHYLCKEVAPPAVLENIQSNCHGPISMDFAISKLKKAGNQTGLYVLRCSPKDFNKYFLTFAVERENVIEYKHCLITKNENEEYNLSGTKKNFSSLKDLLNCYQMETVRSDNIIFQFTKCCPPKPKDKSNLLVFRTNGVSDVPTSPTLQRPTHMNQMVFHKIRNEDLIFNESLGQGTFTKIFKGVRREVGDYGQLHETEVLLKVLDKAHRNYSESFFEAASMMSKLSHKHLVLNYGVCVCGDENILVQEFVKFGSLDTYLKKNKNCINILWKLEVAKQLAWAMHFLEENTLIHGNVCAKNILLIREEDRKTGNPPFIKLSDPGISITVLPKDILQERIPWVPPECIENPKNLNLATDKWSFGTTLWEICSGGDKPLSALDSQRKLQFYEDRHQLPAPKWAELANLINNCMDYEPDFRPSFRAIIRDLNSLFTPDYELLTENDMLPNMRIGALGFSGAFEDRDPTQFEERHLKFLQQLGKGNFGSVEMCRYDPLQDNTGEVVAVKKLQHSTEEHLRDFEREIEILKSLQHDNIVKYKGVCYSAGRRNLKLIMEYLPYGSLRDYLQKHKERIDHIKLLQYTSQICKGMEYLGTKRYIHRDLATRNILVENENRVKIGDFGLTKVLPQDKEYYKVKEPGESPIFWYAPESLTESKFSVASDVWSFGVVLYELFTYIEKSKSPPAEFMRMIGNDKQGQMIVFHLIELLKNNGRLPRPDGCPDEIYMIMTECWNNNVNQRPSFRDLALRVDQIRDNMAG
Sequence of Tyk2 (P29597 whole entry): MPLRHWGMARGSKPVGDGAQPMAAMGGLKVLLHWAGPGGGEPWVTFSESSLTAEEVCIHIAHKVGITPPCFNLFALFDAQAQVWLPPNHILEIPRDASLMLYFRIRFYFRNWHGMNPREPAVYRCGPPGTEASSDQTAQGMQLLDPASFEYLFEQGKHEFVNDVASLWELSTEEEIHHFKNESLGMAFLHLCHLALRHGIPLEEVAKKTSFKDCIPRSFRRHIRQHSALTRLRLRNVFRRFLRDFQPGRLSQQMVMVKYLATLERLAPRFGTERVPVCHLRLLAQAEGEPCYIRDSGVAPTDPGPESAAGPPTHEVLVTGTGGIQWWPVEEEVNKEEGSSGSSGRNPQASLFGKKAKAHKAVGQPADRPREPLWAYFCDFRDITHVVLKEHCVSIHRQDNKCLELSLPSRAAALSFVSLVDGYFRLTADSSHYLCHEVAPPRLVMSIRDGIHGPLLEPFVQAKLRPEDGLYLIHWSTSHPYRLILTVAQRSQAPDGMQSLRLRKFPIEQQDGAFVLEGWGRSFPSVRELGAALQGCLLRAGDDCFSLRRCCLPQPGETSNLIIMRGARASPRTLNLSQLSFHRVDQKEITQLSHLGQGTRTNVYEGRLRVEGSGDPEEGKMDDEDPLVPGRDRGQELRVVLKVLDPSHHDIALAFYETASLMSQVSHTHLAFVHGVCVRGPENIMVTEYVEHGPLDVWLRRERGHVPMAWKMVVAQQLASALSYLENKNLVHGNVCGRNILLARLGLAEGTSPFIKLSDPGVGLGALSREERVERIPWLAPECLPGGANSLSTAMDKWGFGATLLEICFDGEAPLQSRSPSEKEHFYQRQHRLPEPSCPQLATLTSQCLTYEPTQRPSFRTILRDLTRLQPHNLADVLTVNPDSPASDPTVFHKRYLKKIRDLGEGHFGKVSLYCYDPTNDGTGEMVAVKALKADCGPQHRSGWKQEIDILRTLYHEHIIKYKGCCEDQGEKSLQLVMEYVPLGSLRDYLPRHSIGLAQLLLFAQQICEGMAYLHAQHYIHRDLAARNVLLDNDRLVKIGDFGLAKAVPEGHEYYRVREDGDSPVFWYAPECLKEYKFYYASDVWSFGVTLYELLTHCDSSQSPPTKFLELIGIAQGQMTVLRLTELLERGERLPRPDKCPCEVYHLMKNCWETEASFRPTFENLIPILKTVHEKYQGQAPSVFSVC
Sequence of JAK3 (P52333 whole entry): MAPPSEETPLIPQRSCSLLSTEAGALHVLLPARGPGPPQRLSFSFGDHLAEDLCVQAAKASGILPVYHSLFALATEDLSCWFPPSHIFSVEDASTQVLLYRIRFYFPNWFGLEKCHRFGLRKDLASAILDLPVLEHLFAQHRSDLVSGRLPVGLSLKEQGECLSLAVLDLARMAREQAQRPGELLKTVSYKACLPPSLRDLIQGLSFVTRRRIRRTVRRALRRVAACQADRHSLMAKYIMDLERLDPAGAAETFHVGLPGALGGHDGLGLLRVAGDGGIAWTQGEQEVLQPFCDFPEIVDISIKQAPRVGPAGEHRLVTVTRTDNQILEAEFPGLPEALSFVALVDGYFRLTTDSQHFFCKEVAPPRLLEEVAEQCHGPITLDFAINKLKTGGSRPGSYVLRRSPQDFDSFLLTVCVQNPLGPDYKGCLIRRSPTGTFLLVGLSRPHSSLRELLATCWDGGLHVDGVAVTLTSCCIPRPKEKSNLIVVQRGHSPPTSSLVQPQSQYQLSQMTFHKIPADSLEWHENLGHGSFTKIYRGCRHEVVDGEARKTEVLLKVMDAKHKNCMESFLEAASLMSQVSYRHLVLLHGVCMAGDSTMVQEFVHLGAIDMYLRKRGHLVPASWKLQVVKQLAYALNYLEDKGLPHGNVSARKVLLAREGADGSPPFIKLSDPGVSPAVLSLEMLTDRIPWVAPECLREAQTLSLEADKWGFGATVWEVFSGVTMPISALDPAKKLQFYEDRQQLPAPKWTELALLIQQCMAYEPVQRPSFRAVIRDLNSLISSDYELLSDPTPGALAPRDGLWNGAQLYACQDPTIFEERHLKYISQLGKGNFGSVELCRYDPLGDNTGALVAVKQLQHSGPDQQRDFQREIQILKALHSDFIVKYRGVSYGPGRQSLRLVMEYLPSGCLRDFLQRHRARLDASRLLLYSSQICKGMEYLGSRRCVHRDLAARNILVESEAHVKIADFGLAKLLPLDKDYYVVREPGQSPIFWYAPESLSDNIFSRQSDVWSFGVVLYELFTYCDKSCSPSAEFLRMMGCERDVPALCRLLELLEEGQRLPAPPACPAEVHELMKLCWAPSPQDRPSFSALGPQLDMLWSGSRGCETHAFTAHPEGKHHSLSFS

Row | Compound | IC50 [1, 8] [nM] | IC50 [2] [nM] | Tyk2 pKi [3] | JAK3 pKi [4] | JAK2 pKi [5] | Kp at 5 h [6] | concentration at 5 h [6, 9] [ng/g] | concentration at 5 h [6, 10] [ng/mL] | IC50 [1, 11] [nM] | JAK1 pKi [7]
1 | CCc1cc(O)ccc1-c1ccc2c(-c3nc4c([nH]3)CN(C(C)C)[C@H](C(=O)N3CCCN(C)CC3)C4)n[nH]c2c1 [Example 4, (S)-(2-(6-(2-ethyl-4-hydroxyphenyl)-1H-indazol-3-yl)-5-isopropyl-4,5,6,7-tetrahydro-3H-imidazo[4,5-c]pyridin-6-yl)(4-methyl-1,4-diazepan-1-yl)methanone] | 2.51 | 158 |  |  |  |  |  |  |  | 
2 | CCc1cc(O)ccc1-c1ccc2c(-c3nc4c([nH]3)CN(C(C)C)[C@H](C(=O)N3CC[C@H](N(C)C)C3)C4)n[nH]c2c1 [Example 6, ((S)-3-(dimethylamino)pyrrolidin-1-yl)((S)-2-(6-(2-ethyl-4-hydroxyphenyl)-1H-indazol-3-yl)-5-isopropyl-4,5,6,7-tetrahydro-3H-imidazo[4,5-c]pyridin-6-yl)methan One] | 2 | 158 |  |  |  |  |  |  |  | 
3 | CCc1cc(O)ccc1-c1ccc2c(-c3nc4c([nH]3)CN(CC)[C@H](C(=O)N3CC(N(C)C)C3)C4)n[nH]c2c1 [Example 9, (S)-(3-(dimethylamino)azetidin-1-yl)(5-ethyl-2-(6-(2-ethyl-4-hydroxyphenyl)-1H-indazol-3-yl)-4,5,6,7-tetrahydro-3H-imidazo[4,5-c]pyridin-6-yl)methanone] |  |  | 9.2 | 10.3 | 10.7 | 339 | 7750 ± 1650 | 23 ± 6 | 2 | 10.3
4 | CCc1cc(O)ccc1-c1ccc2c(-c3nc4c([nH]3)CN(CC)[C@H](C(=O)N3CC(C)(N(C)C)C3)C4)n[nH]c2c1 [Example 10, (S)-(3-(dimethylamino)-3-methylazetidin-1-yl)(5-ethyl-2-(6-(2-ethyl-4-hydroxyphenyl)-1H-indazol-3-yl)-4,5,6,7-tetrahydro-3H-imidazo[4,5-c]pyridin-6-yl)methan One] |  |  | 9.1 | 10.2 | 10.6 | 216 | 5130 ± 2200 | 24 ± 6 | 2.51 | 10.4
5 | CCc1cc(O)ccc1-c1ccc2c(-c3nc4c([nH]3)CN(C(C)C)[C@H](C(=O)N3CC(C)(N(C)C)C3)C4)n[nH]c2c1 [Example 11, (S)-(3-(dimethylamino)-3-methylazetidin-1-yl)(2-(6-(2-ethyl-4-hydroxyphenyl)-1H-indazol-3-yl)-5-isopropyl-4,5,6,7-tetrahydro-3H-imidazo[4,5-c]pyridin-6-yl)methan One] |  |  | 9.1 | 9.9 | 10.8 | 271 | 15000 ± 3350 | 55 ± 21 | 2 | 10.0
6 | CCCN1Cc2[nH]c(-c3n[nH]c4cc(-c5ccc(O)cc5CC)ccc34)nc2C[C@H]1C(=O)N1CC(N(C)C)C1 [Example 12, (S)-(3-(dimethylamino)azetidin-1-yl)(2-(6-(2-ethyl-4-hydroxyphenyl)-1H-indazol-3-yl)-5-propyl-4,5,6,7-tetrahydro-3H-imidazo[4,5-c]pyridin-6-yl)methan One] |  |  | 9.0 | 10.3 | 10.6 | 281 | 6940 ± 4250 | 25 ± 9 | 2 | 10.5
7 | CCCN1Cc2[nH]c(-c3n[nH]c4cc(-c5ccc(O)cc5CC)ccc34)nc2C[C@H]1C(=O)N1CC(C)(N(C)C)C1 [Example 13, (S)-(3-(dimethylamino)-3-methylazetidin-1-yl)(2-(6-(2-ethyl-4-hydroxyphenyl)-1H-indazol-3-yl)-5-propyl-4,5,6,7-tetrahydro-3H-imidazo[4,5-c]pyridin-6-yl)methan One] |  |  | 9.0 | 9.8 | 10.5 | 330 | 7460 ± 3080 | 23 ± 2.5 | 2.51 | 10.3
